The term IC50 denotes the concentration that inhibits the measured activity by half.

In assay [1] the test system is intracellular Ca^2+ stores. Kind of assay: Ca2+ release from intracellular stores (FURA-2AM loaded cells). In kind it is cell-based. Also noted: key to Ca^2+ (Ca^2+ release from intracellular stores): a “+” denotes release; a “+/−” denotes inconclusive. From the text:
(§1) As a non-limiting example, compounds 1272 and 1273 (set forth in Table 1) were synthesized starting from 3-bromoaniline, which upon condensation with hydroxylamine and chloral hydrate followed by concentrated sulfuric acid yielded an inseparable regioisomeric mixture of 4- and 6-bromo isatins. The addition of the two phenyl groups to the three position of the oxindole allowed easy chromatographic separation of the 4- and 6-bromo-3,3-diphenyloxindoles 1272 and 1273. Table 1 sets forth biological data for diaryloxindole compounds including, but not limited to 1272 and 1273. For Tables 1-14, Ca^2+ refers to Ca^2+ release from intracellular stores where a “+” denotes release and a “+/−” denotes inconclusive; eIF2α-P refers to phosphorylation of eIF2α measured by Western blot; SRB refers to the inhibitory concentration to reduce cell growth by 50% (IC50) for growth inhibition of A549 lung cancer cells; and n.d. is not determined.
(§2) Without intending to be bound by theory, the mechanism of action of translation initiation inhibitors is set forth in FIG. 1, and includes the depletion (complete or partial depletion) of intracellular calcium (Ca^2+) stores and phosphorylation of eIF2α. Compounds synthesized using the approaches described herein were screened for their ability to partially deplete intracellular Ca^2+ stores using FURA-2AM loaded cells (Benzaquen et al. (1995) Nature Medicine, 1:534, incorporated herein by reference in its entirety for all purposes). A limited subset of compounds were further screened for their ability to deplete endoplasmic reticulum (ER) Ca^2+. The Ca^2+ content of the ER was monitored using ER-targeted, Ca^2+ sensitive, recombinant proteins. These recombinant proteins emitted light by fluorescent resonance energy transfer (FRET) as a function of the Ca^2+ content of the medium. Such assays are previously described (Miyawaki, A.; Mizuno, H.; Llopis, J.; Tsien, R. Y.; Jalink, K. Cameleons as cytosolic and intra-organellar calcium probes, Oxford University Press: Oxford, London, 2001; pp 3-16, incorporated herein by reference in its entirety for all purposes). Compounds that depleted Ca^2+ were further evaluated for their ability to phosphorylate eIF2α. eIF2α phosphorylation was measured by Western blot analysis using the phospho-specific anti-eIF2α antibody, as previously described (Aktas et al. (1998) Proc. Natl. Acad. Sci. USA, 95:8280, incorporated herein by reference in its entirety for all purposes).

The subject of a further assay is A549 lung cancer cells. Kind of assay: SRB growth inhibition of A549 lung cancer cells. Type of assay: cell-based, human. Conditions: for IC50: A549 lung cancer cells, unit inferred, read-out: SRB (IC50 for growth inhibition of A549 lung cancer cells). An excerpt: As a non-limiting example, compounds 1272 and 1273 (set forth in Table 1) were synthesized starting from 3-bromoaniline, which upon condensation with hydroxylamine and chloral hydrate followed by concentrated sulfuric acid yielded an inseparable regioisomeric mixture of 4- and 6-bromo isatins. The addition of the two phenyl groups to the three position of the oxindole allowed easy chromatographic separation of the 4- and 6-bromo-3,3-diphenyloxindoles 1272 and 1273. Table 1 sets forth biological data for diaryloxindole compounds including, but not limited to 1272 and 1273. For Tables 1-14, Ca^2+ refers to Ca^2+ release from intracellular stores where a “+” denotes release and a “+/−” denotes inconclusive; eIF2α-P refers to phosphorylation of eIF2α measured by Western blot; SRB refers to the inhibitory concentration to reduce cell growth by 50% (IC50) for growth inhibition of A549 lung cancer cells; and n.d. is not determined. […]

Another assay deals with eIF2α. Kind of assay: eIF2α phosphorylation measured by Western blot. In kind it is cell-based. Conditions: for eIF2α-P (phosphorylation of eIF2α measured by Western blot): unit or reference not given.
Description: as §1, §2
For orientation: A western blot detects proteins with antibodies after separation by electrophoresis.

Take `Cc1cccc(C2(c3cc(C(C)(C)C)ccc3O)C(=O)Nc3ccccc32)c1` (centres unmarked) [Compound 1224]: the “Ca^2+ (Ca^2+ release from intracellular stores)” value in assay [1] is reported as “+”. Moreover, the IC50 with A549 lung cancer cells is 9 µM. Also, the “eIF2α-P (phosphorylation of eIF2α measured by Western blot)” value (“eIF2α-P” below) in the assay with eIF2α is reported as 1.74.
The matching figures for `O=C1Nc2ccccc2C1(c1ccccc1)c1ccc(O)cc1` (centres unmarked) [Compound 1295]: “+”, 16 µM and 1.66.
In the case of `C=CCN1C(=O)C(c2ccccc2)(c2cc(C(C)(C)C)ccc2O)c2ccccc21` (centres unmarked) [Compound 1236], the “Ca^2+ (Ca^2+ release from intracellular stores)” value in assay [1] was “+/−”. Further, in the assay with A549 lung cancer cells, the IC50 turned out to be 3 µM. Also, the “eIF2α-P” value in the assay on eIF2α was found to be 2.23.
With `O=C1Nc2c(CO)ccc(Cl)c2C1(c1ccccc1)c1ccccc1` [Compound 1398], in the assay with A549 lung cancer cells (A549), the “growth inhibition of cancer cells (in words)” value is listed as “reduced potency of tumor cell growth inhibition”. The IC50 in the assay on A549 lung cancer cells was 14 µM. In the assay with eIF2α, the “eIF2α phosphorylation (in words)” value is “reduced eIF2α phosphorylation relative to compound 1392” and the “eIF2α-P” value turned out to be 1.48.
Turning to `CC(C)(C)c1ccc(OCC(=O)O)c(C2(c3ccccc3)C(=O)Nc3ccccc32)c1` (centres unmarked) [Compound 1397], the “Ca^2+ (Ca^2+ release from intracellular stores)” value in assay [1] is reported as “+”. In the assay on A549 lung cancer cells, the IC50 turned out to be 8 µM. Besides, in the assay on eIF2α, the “eIF2α-P” value stood at 1.46.
Turning to `Cc1cc(C2(c3ccccc3)C(=O)Nc3ccccc32)c(NS(=O)(=O)c2ccc(-c3ccccc3)cc2)cc1O` (centres unmarked) [Compound 1593], the IC50 in the assay on A549 lung cancer cells worked out at 4 µM. Also, the “eIF2α-P” value in the assay on eIF2α is 2.22.
On to `CC(C)(C)OC(=O)NCCOc1ccc(C(C)(C)C)cc1C1(c2ccccc2)C(=O)Nc2ccccc21` (centres unmarked) [Compound 1329], for which the concentration for half-maximal inhibition (IC50) in the assay with A549 lung cancer cells amounted to 3 µM. The “eIF2α-P” value in the assay with eIF2α stood at 0.89.
Turning to `C=CCCCOc1ccc(C2(c3cc(C(C)(C)C)ccc3O)C(=O)Nc3ccccc32)cc1` (centres unmarked) [Compound 1218], the IC50 with A549 lung cancer cells is 7 µM. In addition, the “eIF2α-P” value with eIF2α was determined as 1.36.
On to `CC(C)(C)c1ccc(OC(=O)CCCC(=O)O)c(C2(c3ccccc3)C(=O)Nc3ccccc32)c1` (centres unmarked) [Compound 1396], for which the IC50 in the assay on A549 lung cancer cells was 7 µM. Further, the “eIF2α-P” value in the assay with eIF2α is 1.72.
For the compound `COC(=O)C(Cc1ccc(O)c(C2(c3ccccc3)C(=O)Nc3ccccc32)c1)NC(=O)OCC1c2ccccc2-c2ccccc21` (centres unmarked) [Compound 1172], in assay [1], the “Ca^2+ (Ca^2+ release from intracellular stores)” value was “+”. In addition, in the assay with eIF2α, the “eIF2α-P” value came to 1.94.
Regarding `Cc1cc(C2(c3ccccc3)C(=O)Nc3ccccc32)c(NS(=O)(=O)c2ccc(Oc3ccccc3)cc2)cc1O` (centres unmarked) [Compound 1594], the IC50 with A549 lung cancer cells is 5 µM. Moreover, in the assay on eIF2α, the “eIF2α-P” value amounted to 3.73.
In the case of `CC(C)(C)c1ccc(O)c(C2(c3ccccc3)C(=O)Nc3cccc(Cl)c32)c1` (centres unmarked) [Compound 1428], the “Ca^2+ (Ca^2+ release from intracellular stores)” value in assay [1] was “+”. In addition, the IC50 in the assay on A549 lung cancer cells came to 3 µM.
The matching figures for `CN(C)CCCCOc1cccc(C2(c3ccccc3)C(=O)Nc3ccccc32)c1O` (centres unmarked) [Compound 1199]: “+” and greater than 20 µM.
With `NCCCCOc1ccc(O)c(C2(c3ccccc3)C(=O)Nc3ccccc32)c1` (centres unmarked) [Compound 1228], the “Ca^2+ (Ca^2+ release from intracellular stores)” value in assay [1] was “+”. Besides, the IC50 with A549 lung cancer cells was 5 µM.
On the same counts, the results for `CC(C)(C)c1ccc(OC(=O)CCCCCCC(=O)O)c(C2(c3ccccc3)C(=O)Nc3ccccc32)c1` (centres unmarked) [Compound 1321] are “+” and 16 µM.
For the compound `CC(C)(C)c1ccc(O)c(C2(c3cccs3)C(=O)Nc3ccccc32)c1` (centres unmarked) [Compound 1222], the “Ca^2+ (Ca^2+ release from intracellular stores)” value in assay [1] is listed as “+”. Further, the IC50 in the assay with A549 lung cancer cells came to 9 µM.
The matching figures for `CC(C)(C)c1ccc(O)c(C2(c3cc(C(C)(C)C)ccc3O)C(=O)Nc3ccccc32)c1` [Compound 1195]: “+” and 3 µM.
On to `CN(C)CCCCOc1ccc(O)c(C2(c3ccccc3)C(=O)Nc3ccccc32)c1` (centres unmarked) [Compound 1216], for which the “Ca^2+ (Ca^2+ release from intracellular stores)” value in assay [1] is given as “+/−”. In the assay with A549 lung cancer cells, the 50% inhibitory concentration (IC50) is greater than 20 µM.
With `CCCCCCCCc1ccc(O)c(C2(c3ccccc3)C(=O)Nc3ccccc32)c1` (centres unmarked) [Compound 1284], the IC50 with A549 lung cancer cells worked out at 3 µM. For the same compound, the “eIF2α-P” value with eIF2α stood at 2.91.
`CC(C)(C)c1ccc(S(=O)(=O)Nc2cc(O)ccc2C2(c3ccccc3)C(=O)Nc3ccccc32)cc1` (centres unmarked) [Compound 1623]: the “Ca^2+ (Ca^2+ release from intracellular stores)” value in assay [1] is recorded as “+”. Also, the IC50 in the assay on A549 lung cancer cells is less than 1 µM.
`CC(C)(C)c1ccc(O)c(C2(c3ccccc3)C(=O)Nc3ccc(N=[N+]=[N-])cc32)c1` (centres unmarked) [Compound 1348]: the “Ca^2+ (Ca^2+ release from intracellular stores)” value in assay [1] is “+”. Moreover, in the assay with A549 lung cancer cells, the IC50 amounted to 3 µM.
For the compound `Cc1cc(C2(c3ccccc3)C(=O)Nc3ccccc32)c(NC(=O)c2ccc(C(C)(C)C)cc2)cc1O` (centres unmarked) [Compound 1493], in the assay on A549 lung cancer cells, the IC50 was found to be 3 µM. Besides, the “eIF2α-P” value in the assay with eIF2α is listed as 2.06.
As to `CC(C)(C)c1ccc(OC(=O)CCCC(=O)NO)c(C2(c3ccccc3)C(=O)Nc3ccccc32)c1` (centres unmarked) [Compound 1323], the “Ca^2+ (Ca^2+ release from intracellular stores)” value in assay [1] was “+”. Moreover, the IC50 with A549 lung cancer cells was 3 µM.
On the same counts, the results for `CC(C)(C)c1ccc(O)c(C2(c3ccccc3)CNc3ccccc32)c1` (centres unmarked) [Compound 1182] are “+” and 12 µM.
Consider `CC(C)(C)c1ccc(O)c(C2(c3c(F)c(F)c(F)c(F)c3F)C(=O)Nc3ccccc32)c1` (centres unmarked) [Compound 1328], for which the “Ca^2+ (Ca^2+ release from intracellular stores)” value in assay [1] is “+”. Moreover, in the assay on A549 lung cancer cells, the 50% inhibitory concentration (IC50) was 3 µM.
Consider `O=C1Nc2c(I)cccc2C1(c1ccccc1)c1ccccc1` [Compound 1267], for which the “eIF2α-P” value in the assay on eIF2α was found to be 1.88.
On to `Cc1cc(C2(c3ccccc3)C(=O)Nc3ccccc32)c(NC(=O)OCC2c3ccccc3-c3ccccc32)cc1O` (centres unmarked) [Compound 1395], for which the IC50 with A549 lung cancer cells came to 3 µM. Moreover, the “eIF2α-P” value in the assay on eIF2α was 1.84.
On to `COc1ccc(C2(c3ccc(OC)cc3O)C(=O)Nc3ccccc32)c(O)c1` [Compound 1163], for which the “Ca^2+ (Ca^2+ release from intracellular stores)” value in assay [1] is “+”. Moreover, the half-inhibitory concentration (IC50) with A549 lung cancer cells is 10 µM.
Turning to `CC(C)(C)c1ccc(O)c(C2(C3CCCCC3)C(=O)Nc3ccccc32)c1` (centres unmarked) [Compound 1277], the IC50 with A549 lung cancer cells was 10 µM. For the same compound, the “eIF2α-P” value with eIF2α is 1.08.
For the compound `CC(=O)Nc1ccc(S(=O)(=O)Nc2cc(O)c(C)cc2C2(c3ccccc3)C(=O)Nc3ccccc32)cc1` (centres unmarked) [Compound 1512], the IC50 with A549 lung cancer cells came to 4 µM. For the same compound, the “eIF2α-P” value with eIF2α is reported as 1.01.
Turning to `O=C(O)c1cccc2c1NC(=O)C2(c1ccccc1)c1ccccc1` [Compound 1353], in the assay on A549 lung cancer cells, the IC50 was greater than 20 µM. In addition, the “eIF2α-P” value in the assay on eIF2α amounted to 1.54.
Take `[N-]=[N+]=NCCCCOc1cccc(C2(c3ccccc3)C(=O)Nc3ccccc32)c1O` (centres unmarked) [Compound 1200]: the “Ca^2+ (Ca^2+ release from intracellular stores)” value in assay [1] is listed as “+”. The IC50 with A549 lung cancer cells is 3 µM.
On to `CCCCCCCCCCCCC1(c2cc(C(C)(C)C)ccc2O)C(=O)Nc2ccccc21` (centres unmarked) [Compound 1274], for which the IC50 in the assay with A549 lung cancer cells stood at 3 µM. In the assay with eIF2α, the “eIF2α-P” value was 0.91.
Regarding `COc1ccc(C2(c3ccccc3)C(=O)Nc3ccccc32)cc1` (centres unmarked) [Compound 1294], the IC50 in the assay with A549 lung cancer cells is 10 µM. For the same compound, the “eIF2α-P” value in the assay on eIF2α was found to be 1.52.
Turning to `CCc1cccc2c1NC(=O)C2(c1ccccc1)c1ccccc1` [Compound 1268], the IC50 with A549 lung cancer cells stood at 14 µM. For the same compound, in the assay on eIF2α, the “eIF2α-P” value is on record as 2.19.
As to `O=C1Nc2ccc(S(=O)(=O)O)cc2C1(c1ccccc1)c1ccccc1` [Compound 1266], the IC50 with A549 lung cancer cells worked out at 9 µM. For the same compound, in the assay with eIF2α, the “eIF2α-P” value is recorded as 1.62.

(Values after US8044089B2, “3-3-di-substituted-oxindoles as inhibitors of translation initiation” (President and Fellows of Harvard College, priority 2004, dated 2011).)
